The text below walks through data of patent US20120045393A1 (priority 2009, published 2012).

This experiment relates to LHRH binding sites on human ovarian cancer cells (EFO-27).
[1] abbreviates: Table 5: modifications of amino acids at positions 1 and 2, in vitro binding on EFO-27 cells.
[2] abbreviates: EFO-27 cells, competition with [125I-Tyr8]BRU-2477, 90 min.

Like-named read-outs stand apart in the source and are kept apart here. Non-standard residues stand in square brackets, D forms with d. Residues, ends and D or L forms follow the SMILES beside them. *: point of attachment. DOTA = O=C(O)CN1CCN(CC(=O)O)CCN(CC(=O)*)CCN(CC(=O)O)CC1; Bpa = N[C@@H](Cc1ccc(C(=O)c2ccccc2)cc1)C(=O)O; d2Nal = N[C@H](Cc1ccc2ccccc2c1)C(=O)O; azaGly = NNC(=O)O; Sar = CNCC(=O)O Some results are limits rather than exact numbers.
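Note: Cell-associated radioactivity on confluent EFO-27 monolayers in 96-well plates, measured by microplate scintillation counting.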

Consider `CN(CC(=O)N[C@@H](Cc1cn(C)cn1)C(=O)N[C@@H](Cc1c[nH]c2ccccc12)C(=O)N[C@@H](CO)C(=O)N[C@@H](Cc1c[nH]cn1)C(=O)N[C@H](CCCNC(=N)N)C(=O)N[C@@H](Cc1c[nH]c2ccccc12)C(=O)N[C@@H](Cc1ccc(C(=O)c2ccccc2)cc1)C(=O)N1CCC[C@H]1C(=O)NNC(N)=O)C(=O)CN1CCN(CC(=O)O)CCN(CC(=O)O)CCN(CC(=O)O)CC1` [BRU-2741], for which the EC50 – broadly, the midpoint of the concentration-response curve – under setting [1] is 2990 nM.

For `CNCC(=O)N[C@@H](CCCNC(=N)N)C(=O)N[C@@H](Cc1c[nH]c2ccccc12)C(=O)N[C@@H](CO)C(=O)N[C@@H](Cc1c[nH]cn1)C(=O)N[C@H](CCCNC(=N)N)C(=O)N[C@@H](Cc1c[nH]c2ccccc12)C(=O)N[C@@H](Cc1ccc(C(=O)c2ccccc2)cc1)C(=O)N1CCC[C@H]1C(=O)NCc1cccc(CNC(=O)CN2CCN(CC(=O)O)CCN(CC(=O)O)CCN(CC(=O)O)CC2)n1` [BRU-3080], the EC50 lay in the range of 230 to 500 nM.

Regarding `CN(CC(=O)N[C@@H](CCCCN)C(=O)N[C@@H](Cc1c[nH]c2ccccc12)C(=O)N[C@@H](CO)C(=O)N[C@@H](Cc1c[nH]cn1)C(=O)N[C@H](CCCNC(=N)N)C(=O)N[C@@H](Cc1c[nH]c2ccccc12)C(=O)N[C@@H](Cc1ccc(C(=O)c2ccccc2)cc1)C(=O)N1CCC[C@H]1C(=O)NNC(N)=O)C(=O)CN1CCN(CC(=O)O)CCN(CC(=O)O)CCN(CC(=O)O)CC1` [BRU-2871] ({DOTA}-[Sar]KWSH[dR]W[Bpa]P[azaGly]-NH2), under setting [1], the response was half-maximal at 10000 nM (EC50).

For `CCN=C(NCC)NCCCC[C@@H](NC(=O)[C@H](Cc1c[nH]cn1)NC(=O)[C@H](CO)NC(=O)[C@H](Cc1c[nH]c2ccccc12)NC(=O)[C@H](Cc1c[nH]cn1)NC(=O)CN(C)C(=O)CN1CCN(CC(=O)O)CCN(CC(=O)O)CCN(CC(=O)O)CC1)C(=O)N[C@@H](Cc1c[nH]c2ccccc12)C(=O)N[C@@H](Cc1ccc(C(=O)c2ccccc2)cc1)C(=O)N1CCC[C@H]1C(=O)NNC(N)=O` [BRU-2880], the EC50 under setting [2] was determined as 8020 nM.

Take `CN(CC(=O)N[C@@H](Cc1c[nH]cn1)C(=O)N[C@@H](Cc1c[nH]c2ccccc12)C(=O)N[C@@H](CO)C(=O)N[C@@H](Cc1c[nH]cn1)C(=O)N[C@H](CCCNC(=N)N)C(=O)N[C@@H](Cc1c[nH]c2ccccc12)C(=O)N[C@@H](Cc1c[nH]c2ccccc12)C(=O)N1CCC[C@H]1C(=O)NNC(N)=O)C(=O)CN1CCN(CC(=O)O)CCN(CC(=O)O)CCN(CC(=O)O)CC1` [BRU-2724] (HELM PEPTIDE1{[O=C(O)CN1CCN(CC(=O)O)CCN(CC(=O)[*:2])CCN(CC(=O)O)CC1].[Sar].H.W.S.H.[dR].W.W.P.[O=C(NN[*:1])[*:2]].[am]}$$$$V2.0): the EC50 stood at 2670 nM.

Consider `CNCC(=O)N[C@@H](CCCNC(=N)N)C(=O)N[C@@H](Cc1c[nH]c2ccccc12)C(=O)N[C@@H](CO)C(=O)N[C@@H](Cc1c[nH]cn1)C(=O)N[C@H](CCCNC(=N)N)C(=O)N[C@@H](Cc1c[nH]c2ccccc12)C(=O)N[C@@H](Cc1ccc(C(=O)c2ccccc2)cc1)C(=O)N1CCC[C@H]1C(=O)NCCNC(=O)CN1CCN(CC(=O)O)CCN(CC(=O)O)CCN(CC(=O)O)CC1` [BRU-3103], for which the EC50 was at most 200 nM.

As for `CC(C)C[C@H](NC(=O)[C@H](CO)NC(=O)[C@H](Cc1c[nH]c2ccccc12)NC(=O)[C@H](CCCNC(=N)N)NC(=O)[C@@H](Cc1ccc2ccccc2c1)NC(=O)CN1CCN(CC(=O)O)CCN(CC(=O)O)CCN(CC(=O)O)CC1)C(=O)N[C@H](CCCNC(=N)N)C(=O)N[C@@H](Cc1c[nH]c2ccccc12)C(=O)N[C@@H](Cc1ccc(C(=O)c2ccccc2)cc1)C(=O)N1CCC[C@H]1C(=O)NNC(N)=O` [BRU-3029] ({DOTA}-[d2Nal]RWSL[dR]W[Bpa]P[azaGly]-NH2; C-terminus assumed), the response was half-maximal at 1210 nM (EC50).

Consider `CC(C)C[C@H](NC(=O)[C@H](CCCNC(=N)N)NC(=O)[C@@H](Cc1ccc2ccccc2c1)NC(=O)CN1CCN(CC(=O)O)CCN(CC(=O)O)CCN(CC(=O)O)CC1)C(=O)N[C@@H](CO)C(=O)N[C@@H](Cc1c[nH]cn1)C(=O)N[C@H](CCCNC(=N)N)C(=O)N[C@@H](Cc1c[nH]c2ccccc12)C(=O)N[C@@H](Cc1ccc(C(=O)c2ccccc2)cc1)C(=O)N1CCC[C@H]1C(=O)NNC(N)=O` [compound 3108] ({DOTA}-[d2Nal]RLSH[dR]W[Bpa]P[azaGly]-NH2), for which the response was half-maximal at 560 nM (EC50).

In the case of `C[C@@H](NC(=O)[C@H](Cc1c[nH]cn1)NC(=O)[C@H](CO)NC(=O)[C@H](Cc1c[nH]c2ccccc12)NC(=O)[C@H](Cc1c[nH]cn1)NC(=O)CN(C)C(=O)CN1CCN(CC(=O)O)CCN(CC(=O)O)CCN(CC(=O)O)CC1)C(=O)N[C@@H](Cc1c[nH]c2ccccc12)C(=O)N[C@@H](Cc1ccc(C(=O)c2ccccc2)cc1)C(=O)N1CCC[C@H]1C(=O)NNC(N)=O` [compound 2672] ({DOTA}-[Sar]HWSH[dA]W[Bpa]P[azaGly]-NH2), the EC50 under setting [2] came out at 14000 nM.

Turning to `N=C(N)NCCC[C@@H](NC(=O)[C@H](Cc1c[nH]cn1)NC(=O)[C@H](CO)NC(=O)[C@H](Cc1c[nH]c2ccccc12)NC(=O)[C@H](Cc1c[nH]cn1)NC(=O)CNC(=O)CNC(=O)CN1CCN(CC(=O)O)CCN(CC(=O)O)CCN(CC(=O)O)CC1)C(=O)N[C@@H](Cc1c[nH]c2ccccc12)C(=O)N[C@@H](Cc1ccc(C(=O)c2ccccc2)cc1)C(=O)N1CCC[C@H]1C(=O)NNC(N)=O` [BRU-2795], under setting [1], the EC50 is 1370 nM.

Molecule `CNCC(=O)N[C@@H](Cc1c[nH]cn1)C(=O)N[C@@H](Cc1c[nH]c2ccccc12)C(=O)N[C@@H](CO)C(=O)N[C@@H](Cc1c[nH]cn1)C(=O)N[C@H](CCCNC(=N)N)C(=O)N[C@@H](Cc1c[nH]c2ccccc12)C(=O)N[C@@H](Cc1ccc(C(=O)c2ccccc2)cc1)C(=O)N1CCC[C@H]1C(=O)NCCNC(=O)CN1CCN(CC(=O)O)CCN(CC(=O)O)CCN(CC(=O)O)CC1` [BRU-3079] returned an EC50 of 590 to 1000 nM.

On to `N=C(N)NCCC[C@H](NC(=O)[C@@H](Cc1ccc2ccccc2c1)NC(=O)CN1CCN(CC(=O)O)CCN(CC(=O)O)CCN(CC(=O)O)CC1)C(=O)N[C@@H](Cc1c[nH]c2ccccc12)C(=O)N[C@@H](CO)C(=O)N[C@@H](Cc1c[nH]cn1)C(=O)N[C@H](CCCNC(=N)N)C(=O)N[C@@H](Cc1c[nH]c2ccccc12)C(=O)N[C@@H](Cc1ccc(C(=O)c2ccccc2)cc1)C(=O)N1CCC[C@H]1C(=O)NCCCO` [compound 2982], for which the EC50 was determined as 1130 nM.

`N=C(N)NCCC[C@H](NC(=O)[C@@H](Cc1ccc2ccccc2c1)NC(=O)CN1CCN(CC(=O)O)CCN(CC(=O)O)CCN(CC(=O)O)CC1)C(=O)N[C@@H](Cc1c[nH]c2ccccc12)C(=O)N[C@@H](CO)C(=O)N[C@@H](Cc1c[nH]cn1)C(=O)N[C@H](CCCNC(=N)N)C(=O)N[C@@H](Cc1c[nH]c2ccccc12)C(=O)N[C@@H](Cc1ccc(C(=O)c2ccccc2)cc1)C(=O)N1CCC[C@H]1C(=O)NCC(=O)NCc1ccccc1` [compound 2988] came in with an EC50 under setting [2] of 650 nM.

Regarding `N=C(N)NCCC[C@H](NC(=O)[C@@H](Cc1ccc2ccccc2c1)NC(=O)CN1CCN(CC(=O)O)CCN(CC(=O)O)CCN(CC(=O)O)CC1)C(=O)N[C@@H](Cc1c[nH]c2ccccc12)C(=O)N[C@@H](CO)C(=O)N[C@@H](Cc1c[nH]cn1)C(=O)N[C@H](CCCNC(=N)N)C(=O)N[C@@H](Cc1c[nH]c2ccccc12)C(=O)N[C@@H](Cc1ccc(C(=O)c2ccccc2)cc1)C(=O)N1CCC[C@H]1C(=O)NCCOCCNC(=N)N` [compound 2985], the midpoint of the response, the EC50, lay at 460 nM.

Turning to `N=C(N)NCCC[C@H](NC(=O)[C@@H](Cc1ccc2ccccc2c1)NC(=O)CN1CCN(CC(=O)O)CCN(CC(=O)O)CCN(CC(=O)O)CC1)C(=O)N[C@@H](Cc1c[nH]c2ccccc12)C(=O)N[C@@H](CO)C(=O)N[C@@H](Cc1c[nH]cn1)C(=O)N[C@H](CCCNC(=N)N)C(=O)N[C@@H](Cc1c[nH]c2ccccc12)C(=O)N[C@@H](Cc1ccc(C(=O)c2ccccc2)cc1)C(=O)O` [BRU-3064, DO3A10CM-Dna12-Arg-Trp-Ser-His-Darg-Trp-Bpa4-OH] ({DOTA}-[d2Nal]RWSH[dR]W[Bpa]-OH), the response was half-maximal at 720 nM (EC50).

For the molecule `CNCC(=O)N[C@@H](Cc1c[nH]cn1)C(=O)N[C@@H](Cc1c[nH]c2ccccc12)C(=O)N[C@@H](CO)C(=O)N[C@@H](Cc1c[nH]cn1)C(=O)N[C@H](CCCNC(=N)N)C(=O)N[C@@H](Cc1c[nH]c2ccccc12)C(=O)N[C@@H](Cc1ccc(C(=O)c2ccccc2)cc1)C(=O)N1CCC[C@H]1C(=O)NCCNC(=O)CN1CCN(CC(=O)O)CCN(CC(=O)O)CCN(CC(=O)O)CC1` [compound 3079], a half-maximal response (EC50) required 590 ± 260 nM.

`CN(CC(=O)N[C@@H](Cc1c[nH]cn1)C(=O)N[C@@H](Cc1c[nH]c2ccccc12)C(=O)N[C@@H](CO)C(=O)N[C@@H](Cc1c[nH]cn1)C(=O)N[C@H](CCCNC(=N)N)C(=O)N[C@@H](Cc1c[nH]c2ccccc12)C(=O)N[C@@H](Cc1ccccc1)C(=O)N1CCC[C@H]1C(=O)NNC(N)=O)C(=O)CN1CCN(CC(=O)O)CCN(CC(=O)O)CCN(CC(=O)O)CC1` [BRU-2730] (HELM PEPTIDE1{[O=C(O)CN1CCN(CC(=O)O)CCN(CC(=O)[*:2])CCN(CC(=O)O)CC1].[Sar].H.W.S.H.[dR].W.F.P.[O=C(NN[*:1])[*:2]].[am]}$$$$V2.0) yielded an EC50 of 12900 nM.

With `CNCC(=O)N[C@@H](Cc1c[nH]cn1)C(=O)N[C@@H](Cc1c[nH]c2ccccc12)C(=O)N[C@@H](CO)C(=O)N[C@@H](Cc1cnc[nH]1)C(=O)N[C@H](CCCNC(=N)N)C(=O)N[C@@H](Cc1c[nH]c2ccccc12)C(=O)N[C@@H](Cc1ccc(C(=O)c2ccccc2)cc1)C(=O)N1CCC[C@H]1C(=O)NNC(N)=O` [BRU-2441, Sar-His-Trp-Ser-His-Darg-Trp-Bpa-Pro-azaGly-NH2], the “times more potent than the comparator analog” value (BRU-2441 vs BRU-2439, BRU-2666 vs Sar1 analog, BRU-3072 vs Pro9 analog) is recorded as about 2.

`N=C(N)NCCC[C@H](NC(=O)[C@@H](Cc1ccc2ccccc2c1)NC(=O)CN1CCN(CC(=O)O)CCN(CC(=O)O)CCN(CC(=O)O)CC1)C(=O)N[C@@H](Cc1cccnc1)C(=O)N[C@@H](CO)C(=O)N[C@@H](Cc1c[nH]cn1)C(=O)N[C@H](CCCNC(=N)N)C(=O)N[C@@H](Cc1c[nH]c2ccccc12)C(=O)N[C@@H](Cc1ccc(C(=O)c2ccccc2)cc1)C(=O)N1CCC[C@H]1C(=O)NNC(N)=O` [compound 3109] yielded an EC50 of 730 nM.
